Reference: ChEMBL document CHEMBL1129033, “Synthesis and antibacterial activity of U-100592 and U-100766, two oxazolidinone antibacterial agents for the potential treatment of multidrug-resistant gram-positive bacterial infections” (1996)
≈ marks a conversion by molar mass, not a printed value.

Legend:
[1] = system: Bacteroides fragilis; test: In vitro antibacterial activity against Bacteroides fragilis strain ATCC 25285; assay type: functional
[2] = system: Clostridium perfringens; test: In vitro antibacterial activity against Clostridium perfringens strain ATCC 13124; assay type: functional
[3] = system: Escherichia coli; test: In vitro antibacterial activity against Escherichia coli strain ATCC 25922; assay type: functional
[4] = system: Klebsiella pneumoniae; test: In vitro antibacterial activity against Klebsiella pneumoniae strain UC 12081; assay type: functional
[5] = system: Mus musculus; test: In vivo antibacterial activity against Enterococcus faecalis strain UC 12379 administered subcutaneously in mice; assay type: functional; details: sc
[6] = system: Mus musculus; test: In vivo antibacterial activity against Enterococcus faecium strain UC 15090 administered subcutaneously in mice; assay type: functional; details: sc
[7] = system: Mus musculus; test: (§1) In vivo antibacterial activity against Staphylococcus aures strain UC 9213 administered subcutaneously in mice; assay type: functional; details: sc
[8] = system: Mus musculus; test: as §1; assay type: functional; details: sc; remark: listed apart in the source
[9] = system: Mycobacterium tuberculosis; test: In vitro antibacterial activity against Mycobacterium tuberculosis strain H37Rv; f means comparative control value for isoniazid was 0.20 ug/mL.; assay type: functional, organism-based
[10] = system: Pseudomonas aeruginosa; test: In vitro antibacterial activity against Pseudomonas aeruginosa strain ATCC 27853; assay type: functional
[11] = system: Streptococcus pneumoniae; test: In vitro antibacterial activity against Streptococcus pneumoniae strain UC 9912; assay type: functional
[12] = system: Enterococcus faecium; test: In vitro antibacterial activity against Enterococcus faecium strain UC12712; assay type: functional
[13] = system: Mus musculus; test: In vivo antibacterial activity against Enterococcus faecalis strain UC 12379 administered perorally in mice; assay type: functional; details: po
[14] = system: Mus musculus; test: In vivo antibacterial activity against Enterococcus faecium strain UC 15090 administered perorally in mice; assay type: functional; details: po
[15] = system: Mus musculus; test: In vivo antibacterial activity against Staphylococcus aures strain UC 9213 administered perorally in mice; assay type: functional; details: po
[16] = system: Mycobacterium tuberculosis; test: In vitro antibacterial activity against Mycobacterium tuberculosis strain H37Rv; assay type: functional
[17] = system: Streptococcus pyogenes; test: In vitro antibacterial activity against Streptococcus pyogenes strain UC 152; assay type: functional
[18] = system: Staphylococcus epidermidis; test: In vitro antibacterial activity against Staphylococcus epidermis strain UC 30031; assay type: functional
[19] = system: Enterococcus faecalis; test: In vitro antibacterial activity against Enterococcus faecalis strain ATCC 29212; assay type: functional
[20] = system: Staphylococcus aureus; test: In vitro antibacterial activity against Staphylococcus aures strain ATCC 29213; assay type: functional
[21] = system: Staphylococcus aureus; test: In vitro antibacterial activity against Staphylococcus aures strain UC 9213; assay type: functional
[22] = system: Staphylococcus aureus; test: In vitro antibacterial activity against Staphylococcus aures strain UC12673; assay type: functional

Row | Structure (SMILES) | MIC [1] | MIC [2] | MIC [3] | MIC [4] | ED50 [7] | MIC [10] | MIC [11] | MIC [12] | ED50 [13] | ED50 [14] | ED50 [15] | MIC [16] | MIC [17] | MIC [18] | also measured
1 | CN[C@H](CC(C)C)C(=O)N[C@H]1C(=O)N[C@@H](CC(N)=O)C(=O)N[C@H]2C(=O)N[C@H]3C(=O)N[C@H](C(=O)N[C@H](C(=O)O)c4cc(O)cc(O)c4-c4cc3ccc4O)[C@H](O)c3ccc(c(Cl)c3)Oc3cc2cc(c3O[C@@H]2O[C@H](CO)[C@@H](O)[C@H](O)[C@H]2O[C@H]2C[C@](C)(N)[C@H](O)[C@H](C)O2)Oc2ccc(cc2Cl)[C@H]1O [VANCOMYCIN] | > 16 µg/mL | 1 µg/mL (≈ 0.69 µM) | > 64 µg/mL | > 64 µg/mL | 3.9 mg/kg | > 64 µg/mL | 0.5 µg/mL (≈ 0.345 µM) |  |  |  |  |  |  |  | ED50 [5]: < 0.6 mg/kg; ED50 [6]: > 100 mg/kg; ED50 [8]: 3.9 mg/kg; MIC [9]: Comparitive control valie for isonazid was 0.20 ug/ml
2 | CC(=O)NC[C@H]1CN(c2ccc(N3CCOCC3)c(F)c2)C(=O)O1 [LINEZOLID] | 1 µg/mL (≈ 2.96 µM) | 1 µg/mL (≈ 2.96 µM) | > 64 µg/mL | > 64 µg/mL | 2 mg/kg | > 64 µg/mL |  | 2 µg/mL (≈ 5.93 µM) | 10 mg/kg | 24 mg/kg | 5.6 mg/kg | < 0.125 µg/mL | 2 µg/mL (≈ 5.93 µM) | 1 µg/mL (≈ 2.96 µM) | 
3 | CC(=O)NC[C@H]1CN(c2ccc(N3CCN(C(=O)CO)CC3)c(F)c2)C(=O)O1 [EPEREZOLID] | 1 µg/mL (≈ 2.54 µM) | 1 µg/mL (≈ 2.54 µM) | > 64 µg/mL | > 64 µg/mL | 0.9 mg/kg | > 64 µg/mL | 0.5 µg/mL (≈ 1.27 µM) | 1 µg/mL (≈ 2.54 µM) | 1.3 mg/kg | 12.5 mg/kg | 1.9 mg/kg | < 0.125 µg/mL | 1 µg/mL (≈ 2.54 µM) | 1 µg/mL (≈ 2.54 µM) | MIC [19]: 2 µg/mL (≈ 5.07 µM); MIC [20]: 4 µg/mL (≈ 10.1 µM); MIC [21]: 4 µg/mL (≈ 10.1 µM); MIC [22]: 2 µg/mL (≈ 5.07 µM)
